Assay results reported in ChEMBL document CHEMBL5226288, “A perspective on medicinal chemistry approaches towards adenomatous polyposis coli and Wnt signal based colorectal cancer inhibitors” (Eur J Med Chem, 2021).
≈ marks a conversion by molar mass, not a printed value.

How the values were obtained:
DLD-1 [1] = assay: Anticancer activity against human DLD1 cells expressing APC mutant assessed as reduction in cell viability by dual-glo luciferase assay; format: functional, cell-based
SW480 [2] = assay: Antiproliferative activity against human SW480 cells assessed as reduction in cell viability incubated for 72 hrs by MTT assay; format: functional, cell-based; conditions: SW480, 72 h
[3] = target: T1, Poly [ADP-ribose] polymerase tankyrase-2 (Homo sapiens, UniProt Q9H2K2); assay: Inhibition of TNKS2 (unknown origin)
T1 sequence (Q9H2K2 whole entry): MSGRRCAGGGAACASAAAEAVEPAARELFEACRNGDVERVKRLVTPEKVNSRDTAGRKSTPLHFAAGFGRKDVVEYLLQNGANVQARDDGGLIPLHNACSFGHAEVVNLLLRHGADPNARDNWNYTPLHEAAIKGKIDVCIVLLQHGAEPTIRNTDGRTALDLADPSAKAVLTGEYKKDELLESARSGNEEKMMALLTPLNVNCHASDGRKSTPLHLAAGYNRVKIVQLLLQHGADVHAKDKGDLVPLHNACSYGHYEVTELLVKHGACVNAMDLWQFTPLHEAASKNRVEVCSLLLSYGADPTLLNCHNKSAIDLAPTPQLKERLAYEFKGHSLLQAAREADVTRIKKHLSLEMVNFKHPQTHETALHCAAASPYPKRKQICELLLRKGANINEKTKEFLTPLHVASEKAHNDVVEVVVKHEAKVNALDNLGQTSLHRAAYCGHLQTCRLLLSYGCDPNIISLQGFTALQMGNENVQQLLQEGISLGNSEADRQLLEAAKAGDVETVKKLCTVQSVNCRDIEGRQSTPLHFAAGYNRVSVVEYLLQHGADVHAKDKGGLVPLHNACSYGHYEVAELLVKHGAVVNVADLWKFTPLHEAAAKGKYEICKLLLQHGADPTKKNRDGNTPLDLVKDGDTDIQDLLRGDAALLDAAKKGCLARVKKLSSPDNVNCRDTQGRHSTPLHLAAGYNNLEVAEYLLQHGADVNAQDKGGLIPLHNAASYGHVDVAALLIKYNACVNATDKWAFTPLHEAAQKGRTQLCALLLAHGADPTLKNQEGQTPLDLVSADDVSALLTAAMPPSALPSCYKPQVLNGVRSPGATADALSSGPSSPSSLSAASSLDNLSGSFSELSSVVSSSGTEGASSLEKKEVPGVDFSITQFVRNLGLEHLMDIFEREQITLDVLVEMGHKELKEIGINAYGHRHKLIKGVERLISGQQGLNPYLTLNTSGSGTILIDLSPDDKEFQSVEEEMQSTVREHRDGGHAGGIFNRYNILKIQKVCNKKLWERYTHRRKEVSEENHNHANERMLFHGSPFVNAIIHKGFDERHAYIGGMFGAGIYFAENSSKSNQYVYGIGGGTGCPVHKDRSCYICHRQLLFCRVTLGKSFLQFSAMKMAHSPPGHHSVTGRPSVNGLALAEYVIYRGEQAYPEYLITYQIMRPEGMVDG

[4] = target: T2, Poly [ADP-ribose] polymerase tankyrase-1 (Homo sapiens, UniProt O95271); assay: Inhibition of TNKS1 (unknown origin)
T2 sequence (O95271 whole entry): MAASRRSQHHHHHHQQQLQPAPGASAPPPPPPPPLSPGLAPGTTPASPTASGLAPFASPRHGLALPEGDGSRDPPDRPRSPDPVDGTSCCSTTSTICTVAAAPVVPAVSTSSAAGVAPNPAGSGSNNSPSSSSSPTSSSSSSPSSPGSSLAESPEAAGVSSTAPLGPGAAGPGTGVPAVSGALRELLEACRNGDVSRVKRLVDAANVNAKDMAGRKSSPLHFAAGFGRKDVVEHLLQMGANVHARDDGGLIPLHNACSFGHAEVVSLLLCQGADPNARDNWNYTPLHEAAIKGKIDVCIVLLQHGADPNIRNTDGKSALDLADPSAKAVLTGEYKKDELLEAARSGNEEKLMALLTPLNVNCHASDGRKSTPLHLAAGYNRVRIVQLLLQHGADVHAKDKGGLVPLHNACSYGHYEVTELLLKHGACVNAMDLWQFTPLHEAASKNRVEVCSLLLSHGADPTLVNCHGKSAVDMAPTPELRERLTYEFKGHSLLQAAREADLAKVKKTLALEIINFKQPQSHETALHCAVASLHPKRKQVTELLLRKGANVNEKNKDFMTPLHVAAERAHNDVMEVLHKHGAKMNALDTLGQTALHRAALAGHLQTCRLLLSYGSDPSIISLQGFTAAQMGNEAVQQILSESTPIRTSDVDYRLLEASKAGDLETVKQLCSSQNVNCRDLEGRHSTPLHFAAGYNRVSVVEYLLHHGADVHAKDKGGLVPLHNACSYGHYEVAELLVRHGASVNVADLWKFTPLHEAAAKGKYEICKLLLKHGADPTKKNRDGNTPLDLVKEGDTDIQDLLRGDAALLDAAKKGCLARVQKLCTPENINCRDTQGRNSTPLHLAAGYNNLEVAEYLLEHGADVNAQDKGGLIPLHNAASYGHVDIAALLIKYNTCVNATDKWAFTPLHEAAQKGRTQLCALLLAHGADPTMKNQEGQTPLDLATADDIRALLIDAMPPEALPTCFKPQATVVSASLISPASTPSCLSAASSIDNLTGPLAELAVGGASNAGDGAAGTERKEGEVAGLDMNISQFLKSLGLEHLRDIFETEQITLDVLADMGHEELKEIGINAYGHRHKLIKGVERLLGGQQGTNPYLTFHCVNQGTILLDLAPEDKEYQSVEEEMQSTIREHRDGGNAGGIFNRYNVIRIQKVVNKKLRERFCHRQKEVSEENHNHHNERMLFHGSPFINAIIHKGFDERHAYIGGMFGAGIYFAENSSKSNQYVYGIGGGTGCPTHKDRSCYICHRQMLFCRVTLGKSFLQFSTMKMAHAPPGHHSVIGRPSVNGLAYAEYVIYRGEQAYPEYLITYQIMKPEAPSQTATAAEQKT

[5] = target: Ubiquitin carboxyl-terminal hydrolase 7 (Homo sapiens, UniProt Q93009); assay: Inhibition of recombinant full length wild type human Flag-tagged USP7 expressed in human HEK293 cells using Ub-AMC as substrate by fluorometric assay
DLD-1 [6] = assay: Anticancer activity against human DLD-1 cells assessed as reduction in cell viability; format: functional, cell-based
HCT-116 [7] = assay: Anticancer activity against human HCT-116 cells assessed as reduction in cell viability incubated for 48 hrs by MTT assay; format: functional, cell-based; conditions: HCT-116, 48 h
DLD-1 [8] = assay: Anticancer activity against human DLD-1 cells assessed as reduction in cell viability incubated for 48 hrs by MTT assay; format: functional, cell-based; conditions: DLD-1, 48 h
HCT-116 [9] = assay: Anticancer activity against human HCT-116 cells assessed as decrease in cell growth incubated for 72 hrs by tryphan blue staining based cell counter analysis; format: functional; conditions: HCT-116, 72 h
SW480 [10] = assay: Anticancer activity against human SW480 cells assessed as reduction in cell proliferation incubated for 72 hrs by; format: functional, cell-based
SW480 [11] = assay: Antiproliferative activity against human SW480 cells assessed as inhibition of cell growth incubated for 48 hrs by MTS assay; format: functional, cell-based; conditions: SW480, 48 h
HCT-116 [12] = assay: Antiproliferative activity against human HCT-116 cells assessed as reduction in cell viability incubated for 48 hrs by MTT assay; format: functional, cell-based
SW480 [13] = assay: Antiproliferative activity against human SW480 cells assessed as reduction in cell viability incubated for 48 hrs by MTT assay; format: functional, cell-based; conditions: SW480, 48 h
[14] = Inhibition of APC/ASEF (unknown origin) protein protein interaction incubated for 2 hrs by fluorescence polarization analysis; set-up: species or system Homo sapiens
SW480 [15] = assay: Anticancer activity against human SW480 cells assessed as reduction in cell viability incubated for 24 hrs by MTT assay; format: functional, cell-based; conditions: SW480, 24 h
HCT-116 [16] = assay: Anticancer activity against human HCT-116 cells assessed as reduction in cell viability incubated for 24 hrs by MTT assay; format: functional, cell-based; conditions: HCT-116, 24 h

Chain of Ubiquitin carboxyl-terminal hydrolase 7 (Q93009 whole entry): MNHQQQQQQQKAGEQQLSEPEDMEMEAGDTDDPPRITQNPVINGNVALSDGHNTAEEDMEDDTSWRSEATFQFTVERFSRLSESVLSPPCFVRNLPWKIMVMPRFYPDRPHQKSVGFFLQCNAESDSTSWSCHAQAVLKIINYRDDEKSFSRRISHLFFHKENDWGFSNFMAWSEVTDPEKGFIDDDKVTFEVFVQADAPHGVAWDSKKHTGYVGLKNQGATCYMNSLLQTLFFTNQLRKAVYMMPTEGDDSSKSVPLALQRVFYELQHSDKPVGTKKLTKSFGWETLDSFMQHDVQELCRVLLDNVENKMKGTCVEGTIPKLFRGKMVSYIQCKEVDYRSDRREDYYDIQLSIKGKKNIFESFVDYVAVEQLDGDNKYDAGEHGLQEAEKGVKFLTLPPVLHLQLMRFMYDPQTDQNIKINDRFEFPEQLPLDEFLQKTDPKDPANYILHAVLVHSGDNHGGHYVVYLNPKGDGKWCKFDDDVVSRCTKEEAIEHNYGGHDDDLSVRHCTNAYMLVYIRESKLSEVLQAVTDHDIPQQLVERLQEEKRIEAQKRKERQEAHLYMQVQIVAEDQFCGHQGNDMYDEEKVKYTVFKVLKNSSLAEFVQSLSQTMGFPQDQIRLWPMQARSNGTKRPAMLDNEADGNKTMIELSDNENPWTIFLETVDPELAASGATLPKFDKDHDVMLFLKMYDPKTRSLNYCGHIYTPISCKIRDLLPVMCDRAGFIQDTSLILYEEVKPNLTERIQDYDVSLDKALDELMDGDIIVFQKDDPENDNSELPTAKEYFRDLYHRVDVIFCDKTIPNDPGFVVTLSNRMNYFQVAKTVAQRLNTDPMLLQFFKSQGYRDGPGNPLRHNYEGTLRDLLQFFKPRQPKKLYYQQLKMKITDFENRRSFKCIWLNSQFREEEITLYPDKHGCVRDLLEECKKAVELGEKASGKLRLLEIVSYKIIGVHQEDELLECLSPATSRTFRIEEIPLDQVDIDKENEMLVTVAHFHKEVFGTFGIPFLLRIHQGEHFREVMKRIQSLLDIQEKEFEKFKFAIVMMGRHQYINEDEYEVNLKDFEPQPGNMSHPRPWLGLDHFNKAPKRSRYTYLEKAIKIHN

## CCN(C(=O)C1CCN(S(=O)(=O)c2cc(Br)cc3c2N(C(C)=O)CC3)CC1)c1cccc(C)c1
DLD-1 [1]
  IC50: 0.9 µM

## C=C1C(=O)[C@]23CC[C@H]1C[C@H]2[C@@]12CCC[C@@](C)(COC1=O)[C@H]2C[C@H]3O
SW480 [2]
  IC50: 1.7 µM

## COc1ccc(C2(CNC(=O)c3ccc(NC(=O)c4ccco4)cc3)CCOCC2)cc1
[3]
  IC50: 0.85 µM
[4]
  IC50: 1.9 µM

## C=C1C(=O)O[C@@H]2[C@H]3O[C@]3(C)CC/C=C(\C)CC[C@@H]12
[5]
  IC50: 6.58 µM

## NS(=O)(=O)c1ccc(NC(=S)N2CCN(C/C=C/c3ccccc3)CC2)cc1
DLD-1 [6]
  IC50: 0.018 µM

## CCCCCCCCCCCCCC(C(=O)O)C(O)(CC(=O)OC)C(=O)O (centres undefined)
HCT-116 [7]
  IC50: 100 µM
DLD-1 [8]
  IC50: 100 µM

## C=C1C(=O)[C@]23C[C@H]1CCC2[C@@]1(C)C([C@@H](O)[C@@H]3O)[C@](C)(C(=O)O)CC[C@@H]1O (some centres undefined)
HCT-116 [9]
  IC50: 4.07 µM

## CC(=O)O[C@@H]1C(=O)c2c(O)cc(O)cc2O[C@H]1c1ccccc1
SW480 [10]
  IC50: 45.6 µg/mL (≈ 145 µM)

## C=C1C(=O)[C@@]23[C@H](O)C[C@@H]4C(C)(C)CC[C@H](O)[C@@]4(COC(C)=O)[C@@H]2CC[C@H]1[C@H]3O
SW480 [11]
  IC50: 16.8 µM

## Cc1ccccc1-n1c(/C=C/c2nnc(-c3ccc(C#N)cc3)o2)nnc1-c1ccc(S(C)(=O)=O)cn1
[3]
  IC50: 0.025 µM
[4]
  IC50: 0.046 µM

## C=C1C(=O)[C@@]23[C@H](O)CC4C(C)(C)[C@@H](OC(C)=O)CC[C@@]4(C)[C@@H]2[C@@H]2O[C@@H]2[C@@H]1[C@H]3O (some centres undefined)
HCT-116 [12]; Homo sapiens, HCT-116, 48 h, read-out: IC50
  IC50: 20 µM
SW480 [13]
  IC50: 20 µM

## COc1cccc(C2=NN(c3ccc(C(=O)Nc4cc(C(F)(F)F)cc(C(F)(F)F)c4)cc3)C(c3ccc4c(ccn4C)c3)C2)c1 (centres undefined)
[14]
  IC50: 1.02 µM
HCT-116 [12]; time 48 hrs
  IC50: 1.37 µM

## CC(C)(C)[Si](OC[C@@]1(C)C2CC[C@@]3(CO3)[C@@H](C/C=C3/C(=O)OC[C@H]3O)[C@]2(C)CC[C@H]1O)(c1ccccc1)c1ccccc1 (some centres undefined)
SW480 [15]
  IC50: 16.1 µM
HCT-116 [16]
  IC50: 18.2 µM
